# Data: PubChem BioAssay AID256 (DTP/NCI, 2004)
# Values joined by “and” are separate entries in the source; they are usually repeats but may differ in a detail not shown here. Equal values may be shown once. Toxic doses and inconclusive results are not listed.
# Tested on: CD2F1 mice, L1210 leukemia ip, survival T/C
# Test: NCI In Vivo Anticancer Drug Screen. Data for tumor model L1210 Leukemia (intraperitoneal) in CD2F1 (CDF1) mice
# Conditions: higher = longer survival
# Procedure, shortened: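 Implant tumor; dose compound or vehicle; measure endpoint in both groups; report treated divided by control.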
# [1] = endpoint: mean survival time, dose: 100.0 mg/kg/injection, schedule: Q01DX009 (ip), vehicle: saline with Tween-80
# [2] = endpoint: mean survival time, dose: 100.0 mg/kg/injection, schedule: Q04DX003 (ip), vehicle: saline with Tween-80
# [3] = endpoint: mean survival time, dose: 200.0 mg/kg/injection, schedule: Q01DX009 (ip), vehicle: saline with Tween-80
# [4] = endpoint: mean survival time, dose: 200.0 mg/kg/injection, schedule: Q04DX003 (ip), vehicle: saline with Tween-80
# [5] = endpoint: mean survival time, dose: 400.0 mg/kg/injection, schedule: Q04DX003 (ip), vehicle: saline with Tween-80
# [6] = endpoint: mean survival time, dose: 400.0 mg/kg/injection, schedule: Q01DX009 (ip), vehicle: saline with Tween-80
# [7] = endpoint: mean survival time, dose: 12.5 mg/kg/injection, schedule: Q01DX009 (ip), vehicle: saline
# [8] = endpoint: mean survival time, dose: 25.0 mg/kg/injection, schedule: Q01DX009 (ip), vehicle: saline
# [9] = endpoint: mean survival time, dose: 100.0 mg/kg/injection, schedule: Q01DX009 (ip), vehicle: saline
smiles,measurement,setting,value
CC(C)=C(c1ccccc1)c1c(N)ncnc1Cl,T/C,"endpoint: mean survival time, dose: 100.0 mg/kg/injection, schedule: Q01DX001 (ip), vehicle: saline",97 % of control
same,T/C,"endpoint: mean survival time, dose: 200.0 mg/kg/injection, schedule: Q01DX001 (ip), vehicle: saline",95 % of control
same,T/C,"endpoint: mean survival time, dose: 400.0 mg/kg/injection, schedule: Q01DX001 (ip), vehicle: saline",100 % of control
O=C(CN1CCCCC1Cl)c1ccccc1 (stereo not drawn),T/C,"endpoint: mean survival time, dose: 25.0 mg/kg/injection, schedule: Q01DX009 (ip), vehicle: saline with Tween-80",102 % of control
same,T/C,"endpoint: mean survival time, dose: 50.0 mg/kg/injection, schedule: Q01DX009 (ip), vehicle: saline with Tween-80",96 % of control
same,T/C,[1],102 % of control
CCCn1c(O)c(C=N)c(=O)[nH]c1=O,T/C,[1],101 % of control
same,T/C,[2],91 % of control
same,T/C,[3],111 % of control
same,T/C,[4],92 % of control
same,T/C,[5],94 % of control
O=C(c1ccccc1)c1ccc(-c2ccccc2)c(=O)o1,T/C,[1],95 % of control
same,T/C,[2],100 % of control
same,T/C,[3],95 % of control
same,T/C,[4],98 % of control
same,T/C,[6],92 % of control
same,T/C,[5],102 % of control
CN(CO)c1nc(N(C)CO)nc(N(C)CO)n1,T/C,[7],106 % of control and 108 % of control
same,T/C,[8],105 % of control and 108 % of control
same,T/C,"endpoint: mean survival time, dose: 50.0 mg/kg/injection, schedule: Q01DX009 (ip), vehicle: saline",118 % of control and 110 % of control
same,T/C,[9],117 % of control
Cc1cc(OCC2=NCCN2)c(C)c(C)c1Cl,T/C,"endpoint: mean survival time, dose: 6.25 mg/kg/injection, schedule: Q04DX002 (ip), vehicle: saline with Tween-80",94 % of control
same,T/C,"endpoint: mean survival time, dose: 12.5 mg/kg/injection, schedule: Q04DX002 (ip), vehicle: saline with Tween-80",94 % of control
same,T/C,"endpoint: mean survival time, dose: 25.0 mg/kg/injection, schedule: Q04DX002 (ip), vehicle: saline with Tween-80",97 % of control
O=C(CC(=O)Oc1ccc(Cl)cc1Cl)Oc1ccc(Cl)cc1Cl,T/C,[2],97 % of control
same,T/C,[4],101 % of control
same,T/C,[5],95 % of control
CS/C(N)=N\S(=O)(=O)c1ccc(NC(C)=O)cc1,T/C,[1],98 % of control
same,T/C,[3],95 % of control
same,T/C,[6],106 % of control
COc1ccc(C(O)c2ccccn2)cc1 (stereo not drawn),T/C,[1],103 % of control
same,T/C,[3],97 % of control
same,T/C,[6],90 % of control
CNC,T/C,"endpoint: mean survival time, dose: 100.0 mg/kg/injection, schedule: Q04DX002 (ip), vehicle: saline",86 % of control
Cc1cccc2c(CBr)cc(=O)[nH]c12,T/C,"endpoint: mean survival time, dose: 12.5 mg/kg/injection, schedule: Q04DX003 (ip), vehicle: saline with Tween-80",101 % of control
same,T/C,"endpoint: mean survival time, dose: 25.0 mg/kg/injection, schedule: Q04DX003 (ip), vehicle: saline with Tween-80",101 % of control
same,T/C,"endpoint: mean survival time, dose: 50.0 mg/kg/injection, schedule: Q04DX003 (ip), vehicle: saline with Tween-80",101 % of control
CC(C)CCn1cnc2c(=S)nc(N)[nH]c21,T/C,"endpoint: mean survival time, dose: 50.0 mg/kg/injection, schedule: Q01DX001 (ip), vehicle: saline with Tween-80",118 % of control
same,T/C,"endpoint: mean survival time, dose: 100.0 mg/kg/injection, schedule: Q01DX001 (ip), vehicle: saline with Tween-80",95 % of control
O=C1C(CO)(CO)CCC1(CO)CO,T/C,[9],91 % of control
same,T/C,"endpoint: mean survival time, dose: 200.0 mg/kg/injection, schedule: Q01DX009 (ip), vehicle: saline",93 % of control
same,T/C,"endpoint: mean survival time, dose: 400.0 mg/kg/injection, schedule: Q01DX009 (ip), vehicle: saline",98 % of control
CCCCCCCCCCCCCCCCCC[N+](CC)(CC)CC,T/C,"endpoint: mean survival time, dose: 0.75 mg/kg/injection, schedule: Q01DX001 (ip), vehicle: Klucel (hydroxypropylcellulose) (HPC)",91 % of control
same,T/C,"endpoint: mean survival time, dose: 1.5 mg/kg/injection, schedule: Q01DX001 (ip), vehicle: Klucel (hydroxypropylcellulose) (HPC)",108 % of control
same,T/C,"endpoint: mean survival time, dose: 3.0 mg/kg/injection, schedule: Q01DX001 (ip), vehicle: Klucel (hydroxypropylcellulose) (HPC)",100 % of control
O=C(O)/C=C/C(=O)Nc1ccc(Cl)cc1,T/C,[1],104 % of control
same,T/C,[3],89 % of control
CC(C)CCCC(C)C1CCC2C3=CCC4CC(=O)CCC4(C)C3CCC21C (stereo not drawn),T/C,[2],95 % of control
same,T/C,[4],92 % of control
same,T/C,[5],93 % of control
O=C(OC(CN1CCCCC1)CN1CCCc2ccccc21)C(O)C(O)C(O)(CO)C(=O)OC(CN1CCCCC1)CN1CCCc2ccccc21 (stereo not drawn),T/C,[2],95 % of control
same,T/C,[4],91 % of control
c1ccc2c3c(c4c(c2c1)CN(C1CCCCC1)CO4)OCN(C1CCCCC1)C3,T/C,"endpoint: median survival time, dose: 0.19 mg/kg/injection, schedule: Q01DX009 (ip), vehicle: other",101 % of control
same,T/C,"endpoint: median survival time, dose: 0.38 mg/kg/injection, schedule: Q01DX009 (ip), vehicle: other",101 % of control
same,T/C,"endpoint: median survival time, dose: 0.75 mg/kg/injection, schedule: Q01DX009 (ip), vehicle: other",98 % of control
same,T/C,"endpoint: median survival time, dose: 1.5 mg/kg/injection, schedule: Q01DX009 (ip), vehicle: other",98 % of control
O=C1OC(=O)C2C3C=CC(C12)C1C2C(=O)OC(=O)C2C31 (stereo not drawn),T/C,[2],91 % of control and 101 % of control
same,T/C,[4],94 % of control and 97 % of control
same,T/C,[5],123 % of control and 94 % of control
same,T/C,"endpoint: mean survival time, dose: 600.0 mg/kg/injection, schedule: Q04DX003 (ip), vehicle: saline with Tween-80",110 % of control
Nc1[nH]c(=S)[nH]c(=O)c1NC(=O)C1CC1,T/C,"endpoint: mean survival time, dose: 100.0 mg/kg/injection, schedule: Q01DX009 (ip), vehicle: saline sonified",98 % of control
same,T/C,"endpoint: mean survival time, dose: 200.0 mg/kg/injection, schedule: Q01DX009 (ip), vehicle: saline sonified",92 % of control
same,T/C,"endpoint: mean survival time, dose: 400.0 mg/kg/injection, schedule: Q01DX009 (ip), vehicle: saline sonified",98 % of control
C[CH2][Sn]([CH2]C)([O]S(=O)(=O)CC12CCC(CC1=O)C2(C)C)[O]S(=O)(=O)CC12CCC(CC1=O)C2(C)C,T/C,"endpoint: mean survival time, dose: 1.56 mg/kg/injection, schedule: Q01DX009 (ip), vehicle: saline",94 % of control
same,T/C,"endpoint: mean survival time, dose: 3.12 mg/kg/injection, schedule: Q01DX009 (ip), vehicle: saline",94 % of control
same,T/C,"endpoint: mean survival time, dose: 6.25 mg/kg/injection, schedule: Q01DX009 (ip), vehicle: saline",103 % of control
same,T/C,[7],113 % of control
same,T/C,[8],111 % of control
CC(O)CNCCNC(=O)CNC(=O)C=[N+]=[N-] (stereo not drawn),T/C,"endpoint: mean survival time, dose: 200.0 mg/kg/injection, schedule: Q01DX009 (ip), vehicle: other",108 % of control
same,T/C,"endpoint: mean survival time, dose: 800.0 mg/kg/injection, schedule: Q01DX009 (ip), vehicle: other",155 % of control
O=Cc1cc2c(c3ccccc13)CCCC2,T/C,[1],97 % of control
same,T/C,[3],98 % of control
same,T/C,[6],98 % of control
CCCCCCCCCCCCCCNC(=O)C[N+](C)(C)Cc1ccccc1,T/C,"endpoint: mean survival time, dose: 0.25 mg/kg/injection, schedule: Q01DX009 (ip), vehicle: saline sonified",101 % of control
same,T/C,"endpoint: mean survival time, dose: 0.5 mg/kg/injection, schedule: Q01DX009 (ip), vehicle: saline sonified",95 % of control
same,T/C,"endpoint: mean survival time, dose: 1.0 mg/kg/injection, schedule: Q01DX009 (ip), vehicle: saline sonified",95 % of control
same,T/C,"endpoint: mean survival time, dose: 5.0 mg/kg/injection, schedule: Q04DX003 (ip), vehicle: saline",96 % of control
same,T/C,"endpoint: mean survival time, dose: 10.0 mg/kg/injection, schedule: Q04DX003 (ip), vehicle: saline",96 % of control
CCCCCCCCCCCCOP(OCCCCCCCCCCCC)OCCCCCCCCCCCC,T/C,"endpoint: mean survival time, dose: 100.0 mg/kg/injection, schedule: Q04DX003 (ip), vehicle: alcohol",102 % of control
same,T/C,"endpoint: mean survival time, dose: 200.0 mg/kg/injection, schedule: Q04DX003 (ip), vehicle: alcohol",96 % of control
same,T/C,"endpoint: mean survival time, dose: 400.0 mg/kg/injection, schedule: Q04DX003 (ip), vehicle: alcohol",98 % of control
CCSc1nc(N)c2ncn(C3OC(C)C(O)C(O)C3O)c2n1 (stereo not drawn),T/C,"endpoint: median survival time, dose: 12.5 mg/kg/injection, schedule: Q01DX005 (ip), vehicle: saline with Tween-80",106 % of control
same,T/C,"endpoint: median survival time, dose: 25.0 mg/kg/injection, schedule: Q01DX005 (ip), vehicle: saline with Tween-80",101 % of control
same,T/C,"endpoint: median survival time, dose: 50.0 mg/kg/injection, schedule: Q01DX005 (ip), vehicle: saline with Tween-80",94 % of control
same,T/C,"endpoint: median survival time, dose: 100.0 mg/kg/injection, schedule: Q01DX005 (ip), vehicle: saline with Tween-80",103 % of control
same,T/C,"endpoint: median survival time, dose: 200.0 mg/kg/injection, schedule: Q01DX005 (ip), vehicle: saline with Tween-80",100 % of control
N#CC12OC1(C#N)C(=O)C=CC2=O (stereo not drawn),T/C,"endpoint: mean survival time, dose: 6.25 mg/kg/injection, schedule: Q01DX001 (ip), vehicle: saline",104 % of control
same,T/C,"endpoint: mean survival time, dose: 12.5 mg/kg/injection, schedule: Q01DX001 (ip), vehicle: saline",89 % of control
same,T/C,"endpoint: mean survival time, dose: 25.0 mg/kg/injection, schedule: Q01DX001 (ip), vehicle: saline",93 % of control
Nc1ncnc(N)c1N,T/C,[1],112 % of control
CCCN(N=O)C(=O)Nc1ccc(C2CC(=O)N(C)C2=O)cc1 (stereo not drawn),T/C,"endpoint: mean survival time, dose: 12.5 mg/kg/injection, schedule: Q01DX001 (ip), vehicle: distilled water + Tween-80",112 % of control
same,T/C,"endpoint: mean survival time, dose: 25.0 mg/kg/injection, schedule: Q01DX001 (ip), vehicle: distilled water + Tween-80",111 % of control
same,T/C,"endpoint: mean survival time, dose: 50.0 mg/kg/injection, schedule: Q01DX001 (ip), vehicle: distilled water + Tween-80",109 % of control
same,T/C,"endpoint: mean survival time, dose: 100.0 mg/kg/injection, schedule: Q01DX001 (ip), vehicle: distilled water + Tween-80",101 % of control
same,T/C,"endpoint: mean survival time, dose: 200.0 mg/kg/injection, schedule: Q01DX001 (ip), vehicle: distilled water + Tween-80",107 % of control
O=C(O)CNCC(=O)O,T/C,[1],93 % of control
same,T/C,[3],97 % of control
same,T/C,[6],98 % of control
